# Experimental data from US20240409585A1, “MACROCYCLIC IMMUNOMODULATORS” (priority 2021, published 2024).
# Bridge positions count the residues as written; N and C are the ends. Square brackets hold non-standard residues; d marks the D form. Peptide text beside a SMILES is read from it. * marks the point of attachment. ξ: configuration not given here. Tyr(3-NO2) = N[C@@H](Cc1ccc(O)c([N+](=O)[O-])c1)C(=O)O; Phe(3-CF3) = N[C@@H](Cc1cccc(C(F)(F)F)c1)C(=O)O; Bip = N[C@@H](Cc1ccc(-c2ccccc2)cc1)C(=O)O; Phe(3-F) = N[C@@H](Cc1cccc(F)c1)C(=O)O; Phe(3-Me) = Cc1cccc(C[C@H](N)C(=O)O)c1; Bta = N[C@@H](Cc1csc2ccccc12)C(=O)O; hTyr = N[C@@H](CCc1ccc(O)cc1)C(=O)O; Val(3-OH) = CC(C)(O)[C@H](N)C(=O)O; 2Pal = N[C@@H](Cc1ccccn1)C(=O)O; 3Pal = N[C@@H](Cc1cccnc1)C(=O)O; 4Pal = N[C@@H](Cc1ccncc1)C(=O)O; Cha = N[C@@H](CC1CCCCC1)C(=O)O; Cit = NC(=O)NCCC[C@H](N)C(=O)O; Ile(3ξ) = CCC(C)[C@H](N)C(=O)O; Thr(3ξ) = CC(O)[C@H](N)C(=O)O; dNle = CCCC[C@@H](N)C(=O)O; Carboxymethyl = O=C(O)C*; NMeA = CN[C@@H](C)C(=O)O; Orn = NCCC[C@H](N)C(=O)O; Dab = NCC[C@H](N)C(=O)O; Dap = NC[C@H](N)C(=O)O
# Target: T1, PE-labeled human PD-L1-Ig binding to Jurkat cell line over-expressing human PD-1 (Jurkat-PD-1) (Homo sapiens, UniProt Q15116)
# T1 construct: expressed in transfected cells; host or cells: Jurkat
# T1 sequence (Q15116 25-288): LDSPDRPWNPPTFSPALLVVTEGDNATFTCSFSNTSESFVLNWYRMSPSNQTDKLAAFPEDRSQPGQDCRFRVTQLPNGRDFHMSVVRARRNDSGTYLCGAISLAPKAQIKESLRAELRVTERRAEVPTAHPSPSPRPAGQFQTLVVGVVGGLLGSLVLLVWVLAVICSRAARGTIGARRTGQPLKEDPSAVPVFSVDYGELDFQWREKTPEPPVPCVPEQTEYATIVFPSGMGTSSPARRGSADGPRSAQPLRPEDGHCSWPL
# Assay: Jurkat-PD-1 Cell Binding High-Content Screening Assay (CBA): Method 1
# Conditions: Jurkat-hPD-1 cells, PE-labeled PD-L1-Ig 20 nM final; read-out: Jurkat HPDL1 PD1 IC50 (uM) (Method 1)
row,Structure (SMILES),IC50 [µM]
1,CC[C@H](C)[C@@H]1NC(=O)[C@H](Cc2ccc(-c3ccccc3)cc2)NC(=O)[C@H](C(C)C)NC(=O)[C@H](Cc2c[nH]c3ccccc23)NC(=O)[C@H](CC(=O)O)NC(=O)[C@H](Cc2ccc(O)cc2)NC(=O)[C@H](CN)NC(=O)CSC[C@@H](C(=O)N[C@@H](C)C(N)=O)NC(=O)[C@H]([C@@H](C)O)NC(=O)[C@H](C(C)C)NC(=O)[C@H](CC(C)C)NC(=O)[C@H](CCCNC(=N)N)NC(=O)[C@@H](CC(C)C)NC(=O)[C@H](C)N(C)C1=O [Compound 1488] ({CH2CO}-[Dap]YDWV[Bip]I[NMeA][dL]RLVTCA-NH2; thioether N-14),0.04
2,CC(C)C[C@@H]1NC(=O)[C@H](CCCNC(=N)N)NC(=O)[C@@H](Cc2ccccc2)NC(=O)[C@H](C)N(C)C(=O)[C@H](CCCNC(=N)N)NC(=O)[C@H](Cc2ccc(-c3ccccc3)cc2)NC(=O)[C@H](C(C)C)NC(=O)[C@H](Cc2c[nH]c3ccccc23)NC(=O)[C@H](CC(=O)O)NC(=O)[C@H](Cc2ccc(O)cc2)NC(=O)[C@H](Cc2cccnc2)NC(=O)CSC[C@@H](C(=O)N[C@@H](C)C(N)=O)NC(=O)[C@H]([C@@H](C)O)NC(=O)[C@H](C(C)C)NC1=O [Compound 1161] ({CH2CO}-[3Pal]YDWV[Bip]R[NMeA][dF]RLVTCA-NH2; thioether N-14),0.11
3,CC(C)C[C@@H]1NC(=O)[C@H](CCN)NC(=O)[C@H](Cc2csc3ccccc23)NC(=O)[C@H](C)N(C)C(=O)[C@H](CCC(=O)O)NC(=O)[C@H](Cc2ccc(-c3ccccc3)cc2)NC(=O)[C@H](C(C)C)NC(=O)[C@H](Cc2c[nH]c3ccccc23)NC(=O)[C@H](CC(=O)O)NC(=O)[C@H](Cc2ccc(O)cc2)NC(=O)[C@H](Cc2ccccc2)NC(=O)CSC[C@@H](C(=O)N[C@@H](C)C(N)=O)NC(=O)[C@H]([C@@H](C)O)NC(=O)[C@H](C(C)C)NC1=O [Compound 1143] ({CH2CO}-FYDWV[Bip]E[NMeA][Bta][Dab]LVTCA-NH2; thioether N-14),0.24
4,CC(C)C[C@@H]1NC(=O)[C@H](CCN)NC(=O)[C@@H](CC(C)C)NC(=O)[C@H](C)N(C)C(=O)[C@H](CCCNC(N)=O)NC(=O)[C@H](Cc2ccc(-c3ccccc3)cc2)NC(=O)[C@H](C(C)C)NC(=O)[C@H](Cc2c[nH]c3ccccc23)NC(=O)[C@H](CC(=O)O)NC(=O)[C@H](Cc2ccc(O)c([N+](=O)[O-])c2)NC(=O)[C@H](Cc2ccccn2)NC(=O)CSC[C@@H](C(=O)N[C@@H](C)C(N)=O)NC(=O)[C@H]([C@@H](C)O)NC(=O)[C@H](C(C)C)NC1=O [Compound 1337] ({CH2CO}-[2Pal][Tyr(3-NO2)]DWV[Bip][Cit][NMeA][dL][Dab]LVTCA-NH2; thioether N-14),0.28
5,CC(C)C[C@@H]1NC(=O)[C@H](CCCNC(=N)N)NC(=O)[C@@H](CC(C)C)NC(=O)[C@H](C)N(C)C(=O)[C@H](C(C)C)NC(=O)[C@H](Cc2ccc(-c3ccccc3)cc2)NC(=O)[C@H](C(C)C)NC(=O)[C@H](Cc2cccc(C(F)(F)F)c2)NC(=O)[C@H](CC(=O)O)NC(=O)[C@H](Cc2ccc(O)cc2)NC(=O)[C@H](CC(N)=O)NC(=O)CSC[C@@H](C(=O)N[C@@H](C)C(N)=O)NC(=O)[C@H]([C@@H](C)O)NC(=O)[C@H](C(C)C)NC1=O [Compound 1291] ({CH2CO}-NYD[Phe(3-CF3)]V[Bip]V[NMeA][dL]RLVTCA-NH2; thioether N-14),0.02
6,CCCC[C@H]1NC(=O)[C@H](C)N(C)C(=O)[C@H](CCCNC(=N)N)NC(=O)[C@H](Cc2ccc(-c3ccccc3)cc2)NC(=O)[C@H](C(C)C)NC(=O)[C@H](Cc2c[nH]c3ccccc23)NC(=O)[C@H](CC(=O)O)NC(=O)[C@H](Cc2ccc(O)cc2)NC(=O)[C@H](Cc2ccccc2)NC(=O)CSC[C@@H](C(=O)N[C@@H](C)C(N)=O)NC(=O)[C@H]([C@@H](C)O)NC(=O)[C@H](C(C)C)NC(=O)[C@H](CC(C)C)NC(=O)[C@H](CCCNC(=N)N)NC1=O [Compound 1063] ({CH2CO}-FYDWV[Bip]R[NMeA][dNle]RLVTCA-NH2; thioether N-14),0.06
7,CC(C)C[C@@H]1NC(=O)[C@H](CCN)NC(=O)[C@@H](CC(C)C)NC(=O)[C@H](C)N(C)C(=O)[C@H](CCCNC(=N)N)NC(=O)[C@H](Cc2ccc(-c3ccccc3)cc2)NC(=O)[C@H](C(C)C)NC(=O)[C@H](Cc2c[nH]c3ccccc23)NC(=O)[C@H](CC(=O)O)NC(=O)[C@H](Cc2ccc(O)cc2)NC(=O)[C@H](CCCN)NC(=O)CSC[C@@H](C(=O)N[C@@H](C)C(N)=O)NC(=O)[C@H]([C@@H](C)O)NC(=O)[C@H](C(C)C)NC1=O [Compound 1341] ({CH2CO}-[Orn]YDWV[Bip]R[NMeA][dL][Dab]LVTCA-NH2; thioether N-14),0.05
8,CC[C@H](C)[C@@H]1NC(=O)[C@H](Cc2ccc(-c3ccccc3)cc2)NC(=O)[C@H](CC(C)C)NC(=O)[C@H](Cc2c[nH]c3ccccc23)NC(=O)[C@H](CC(=O)O)NC(=O)[C@H](Cc2ccc(O)cc2)NC(=O)[C@H](Cc2ccccc2)NC(=O)CSC[C@@H](C(=O)NCC(N)=O)NC(=O)[C@H](CO)NC(=O)[C@H](C(C)C)NC(=O)[C@H](CC(C)C)NC(=O)[C@H](CCN)NC(=O)[C@@H](CC(C)C)NC(=O)[C@H](C)N(C)C1=O [Compound 1511] ({CH2CO}-FYDWL[Bip]I[NMeA][dL][Dab]LVSCG-NH2; thioether N-14),0.01
9,CC(C)C[C@@H]1NC(=O)[C@H](CCN)NC(=O)[C@@H](CC(C)C)NC(=O)[C@H](C)N(C)C(=O)[C@H](CCCNC(=N)N)NC(=O)[C@H](Cc2ccc(-c3ccccc3)cc2)NC(=O)[C@H](C(C)C)NC(=O)[C@H](Cc2c[nH]c3ccccc23)NC(=O)[C@H](CC(=O)O)NC(=O)[C@H](CCc2ccc(O)cc2)NC(=O)[C@H](CC(N)=O)NC(=O)CSC[C@@H](C(=O)N[C@@H](C)C(N)=O)NC(=O)[C@H]([C@@H](C)O)NC(=O)[C@H](C(C)C)NC1=O [Compound 1354] ({CH2CO}-N[hTyr]DWV[Bip]R[NMeA][dL][Dab]LVTCA-NH2; thioether N-14),0.02
10,Cc1cccc(C[C@@H]2NC(=O)[C@H](CC(=O)O)NC(=O)[C@H](Cc3ccc(O)cc3)NC(=O)[C@H](CC(N)=O)NC(=O)CSC[C@@H](C(=O)N[C@H](C)C(N)=O)NC(=O)[C@H](CCC(=O)O)NC(=O)[C@H](C(C)(C)O)NC(=O)[C@H](CC3CCCCC3)NC(=O)[C@H](CCN)NC(=O)[C@@H](CC(C)C)NC(=O)[C@H](C)N(C)C(=O)[C@H](CCCNC(N)=O)NC(=O)[C@H](Cc3ccc(-c4ccccc4)cc3)NC(=O)[C@H](C(C)(C)O)NC2=O)c1 [Compound 1712] ({CH2CO}-NYD[Phe(3-Me)][Val(3-OH)][Bip][Cit][NMeA][dL][Dab][Cha][Val(3-OH)]EC[dA]-NH2; thioether N-14),0.24
11,CC(C)C[C@@H]1NC(=O)[C@H](CCCNC(=N)N)NC(=O)[C@H](Cc2csc3ccccc23)NC(=O)[C@H](C)N(C)C(=O)[C@H](CCCNC(=N)N)NC(=O)[C@H](Cc2ccc(-c3ccccc3)cc2)NC(=O)[C@H](C(C)C)NC(=O)[C@H](Cc2c[nH]c3ccccc23)NC(=O)[C@H](CC(=O)O)NC(=O)[C@H](Cc2ccc(O)cc2)NC(=O)[C@H](CC(N)=O)NC(=O)CSC[C@@H](C(=O)NCC(N)=O)NC(=O)[C@H](CO)NC(=O)[C@H](C(C)C)NC1=O [Compound 1026] ({CH2CO}-NYDWV[Bip]R[NMeA][Bta]RLVSCG-NH2; thioether N-14),0.13
12,CC(C)C[C@H]1NC(=O)[C@H](C)N(C)C(=O)[C@H](C(C)C)NC(=O)[C@H](Cc2ccc(-c3ccccc3)cc2)NC(=O)[C@H](C(C)C)NC(=O)[C@H](Cc2c[nH]c3ccccc23)NC(=O)[C@H](CC(=O)O)NC(=O)[C@H](Cc2ccc(O)cc2)NC(=O)[C@H](Cc2ccc(OCC(=O)O)cc2)NC(=O)CSC[C@@H](C(=O)N[C@@H](C)C(N)=O)NC(=O)[C@H]([C@@H](C)O)NC(=O)[C@H](C(C)C)NC(=O)[C@H](CC2CCCCC2)NC(=O)[C@H](CCN)NC1=O [Compound 1507] ({CH2CO}-Y(Carboxymethyl)YDWV[Bip]V[NMeA][dL][Dab][Cha]VTCA-NH2; thioether N-14),0.01
13,CCNC(=O)[C@H](CCN)NC(=O)[C@@H]1CSCC(=O)N[C@@H](Cc2ccncc2)C(=O)N[C@@H](Cc2ccc(OCC(=O)O)cc2)C(=O)N[C@@H](CC(=O)O)C(=O)N[C@@H](Cc2cccc(C)c2)C(=O)N[C@@H](Cc2cccc(F)c2)C(=O)N[C@@H](Cc2ccc(-c3ccccc3)cc2)C(=O)N[C@@H](C(C)C)C(=O)N(C)[C@@H](C)C(=O)N[C@H](CC(C)C)C(=O)N[C@@H](CCN)C(=O)N[C@@H](CC2CCCCC2)C(=O)N[C@@H](C(C)(C)O)C(=O)N[C@@H](CO)C(=O)N1 [Compound 1838] ({CH2CO}-[4Pal]Y(Carboxymethyl)D[Phe(3-Me)][Phe(3-F)][Bip]V[NMeA][dL][Dab][Cha][Val(3-OH)]SC[Dab]-NHEt; thioether N-14),0.01
14,CCC(C)[C@@H]1NC(=O)[C@H](Cc2ccc(-c3ccccc3)cc2)NC(=O)[C@H](CC(C)C)NC(=O)[C@H](Cc2c[nH]c3ccccc23)NC(=O)[C@H](CC(=O)O)NC(=O)[C@H](Cc2ccc(OCC(=O)O)cc2)NC(=O)[C@H](C(C)O)NC(=O)CSC[C@@H](C(=O)N[C@@H](CC(N)=O)C(=O)O)NC(=O)[C@H](CC(C)C)NC(=O)[C@H](C(C)C)NC(=O)[C@H](CC(C)C)NC(=O)[C@H](CCN)NC(=O)[C@@H](CC(C)C)NC(=O)[C@H](C)N(C)C1=O (stereo partly drawn) [Compound 2224] ({CH2CO}-[Thr(3ξ)]Y(Carboxymethyl)DWL[Bip][Ile(3ξ)][NMeA][dL][Dab]LVLCN-OH; thioether N-14),0.24
15,Cc1cccc(C[C@@H]2NC(=O)[C@H](CC(=O)O)NC(=O)[C@H](Cc3ccc(OCC(=O)O)cc3)NC(=O)[C@H](CC(N)=O)NC(=O)CSC[C@@H](C(N)=O)NC(=O)[C@H](CCCN)NC(=O)[C@H](C(C)C)NC(=O)[C@H](CC3CCCCC3)NC(=O)[C@H](CCN)NC(=O)[C@@H](CC(C)C)NC(=O)[C@H](C)N(C)C(=O)[C@H](Cc3ccc(OCC(=O)O)cc3)NC(=O)[C@H](Cc3ccc(-c4ccccc4)cc3)NC(=O)[C@H](Cc3ccc(OCC(=O)O)cc3)NC2=O)c1 [Compound 1668] ({CH2CO}-NY(Carboxymethyl)D[Phe(3-Me)]Y(Carboxymethyl)[Bip]Y(Carboxymethyl)[NMeA][dL][Dab][Cha]V[Orn]C-NH2; thioether N-14),0.05
